Test results reported in patent US10543249B2, “Pharmaceutical composition for a sustained release of lanreotide” (IPSEN PHARMA S.A.S., priority 2013, dated 2020).

Assay: Solubility of lanreotide acetate
Format: physicochemical
Description: The term “co-solvent” as used in the present application refers to a solvent or a mixture of solvents which allows the incorporation of the active ingredient in the composition to obtain the required dose in a suitable volume and matching the injectability criteria.
A composition according to the present invention comprises a co-solvent which allows obtaining the required injectability criteria of the pharmaceutical compositions. The co-solvent used in the composition according to the present invention is hydrosoluble. Moreover, the solubility, in the hydrosoluble co-solvent, of lanreotide or its salts used according to the present invention is equal or higher than 8% (w/v) at room temperature. For comparison, the solubility of lanreotide acetate is less than 4% in water, aqueous acetic acid (at the concentration of 0.1 or 1 mol/mL), aqueous NaCl (0.9%), or polysorbate (0.01%).

Measured: solubility of lanreotide acetate

CC(C)[C@@H]1NC(=O)[C@H](CCCCN)NC(=O)[C@@H](Cc2c[nH]c3ccccc23)NC(=O)[C@H](Cc2ccc(O)cc2)NC(=O)[C@@H](NC(=O)[C@H](N)Cc2ccc3ccccc3c2)CSSC[C@@H](C(=O)N[C@H](C(N)=O)[C@@H](C)O)NC1=O [lanreotide acetate]
less than 4%: in aqueous NaCl (0.9%) | in aqueous acetic acid (at the concentration of 0.1 or 1 mol/mL) | in polysorbate (0.01%) | in water
